Laboratory results reported in the supplement of paper PMC10307832.

Key:
Assay in all cases: relative viability (nuclei count vs DMSO), 5 days (fraction); higher = more cells survive
COR-L23 = system: COR-L23
Outline: (§1)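 Dosing by pin tool came one day after lung cancer cell lines were seeded in 1536-well plates, using either one drug or a fixed anchor-drug dose plus five library-drug doses (not always all listed) in √10 steps. After 5 days, nuclei were counted on 4× images. Relative viability is treated-well nuclei count divided by vehicle-well nuclei count, and values are medians of duplicate plates.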

ChaGo-K-1 = system: ChaGo-K-1
Outline: as §1

EPLC-272H = system: EPLC-272H
Outline: as §1

H3255 = system: H3255
Outline: as §1

HARA = system: HARA
Outline: as §1

HCC-78 = system: HCC-78
Outline: as §1

HOP-62 = system: HOP-62
Outline: as §1

LCLC-97TM1 = system: LCLC-97TM1
Outline: as §1

LXF-289 = system: LXF-289
Outline: as §1

NCI-H1395 = system: NCI-H1395
Outline: as §1

NCI-H1437 = system: NCI-H1437
Outline: as §1

NCI-H1650 = system: NCI-H1650
Outline: as §1

NCI-H1666 = system: NCI-H1666
Outline: as §1

NCI-H1793 = system: NCI-H1793
Outline: as §1

NCI-H1944 = system: NCI-H1944
Outline: as §1

NCI-H2085 = system: NCI-H2085
Outline: as §1

NCI-H2087 = system: NCI-H2087
Outline: as §1

NCI-H2126 = system: NCI-H2126
Outline: as §1

NCI-H3122 = system: NCI-H3122
Outline: as §1

NCI-H441 = system: NCI-H441
Outline: as §1

NCI-H596 = system: NCI-H596
Outline: as §1

NCI-H661 = system: NCI-H661
Outline: as §1

PC-14 = system: PC-14
Outline: as §1

For `Cc1cn(-c2cc(NC(=O)c3ccc(C)c(Nc4nccc(-c5cccnc5)n4)c3)cc(C(F)(F)F)c2)cn1` [Nilotinib] + CC(=O)Nc1cccc(-n2c(=O)n(C3CC3)c(=O)c3c(Nc4ccc(I)cc4F)n(C)c(=O)c(C)c32)c1 [Trametinib] (partner 0.02 µM), the relative viability (COR-L23; first compound 0.001 µM) was 0.472, the relative viability (COR-L23; first compound 0.003162 µM) was 0.419 and the relative viability (COR-L23; first compound 0.01 µM) was 0.384. It also gave a relative viability (COR-L23; first compound 0.03162 µM) of 0.283, a relative viability (COR-L23; first compound 0.1 µM) of 0.266 and a relative viability (ChaGo-K-1; first compound 0.001 µM) of 0.824. The relative viability (ChaGo-K-1; first compound 0.003162 µM) was 1.15, the relative viability (ChaGo-K-1; first compound 0.01 µM) was 1.03 and the relative viability (ChaGo-K-1; first compound 0.03162 µM) was 0.804. For the same molecule, the relative viability (ChaGo-K-1; first compound 0.1 µM) was 0.869, the relative viability (EPLC-272H; first compound 0.001 µM) was 0.289 and the relative viability (EPLC-272H; first compound 0.003162 µM) was 0.233. The relative viability (EPLC-272H; first compound 0.01 µM) was 0.34, the relative viability (EPLC-272H; first compound 0.03162 µM) was 0.273 and the relative viability (EPLC-272H; first compound 0.1 µM) was 0.225. For the same molecule, the relative viability (H3255; first compound 0.001 µM) was 0.617, the relative viability (H3255; first compound 0.003162 µM) was 0.582 and the relative viability (H3255; first compound 0.03162 µM) was 0.53. The relative viability (H3255; first compound 0.1 µM) was 0.947, the relative viability (HARA; first compound 0.001 µM) was 0.43 and the relative viability (HARA; first compound 0.003162 µM) was 0.468. It also gave a relative viability (HARA; first compound 0.01 µM) of 0.522, a relative viability (HARA; first compound 0.03162 µM) of 0.402 and a relative viability (HARA; first compound 0.1 µM) of 0.289. The relative viability (HCC-78; first compound 0.001 µM) was 0.754, the relative viability (HCC-78; first compound 0.003162 µM) was 0.597 and the relative viability (HCC-78; first compound 0.01 µM) was 0.956. For the same molecule, the relative viability (HCC-78; first compound 0.03162 µM) was 0.649, the relative viability (HCC-78; first compound 0.1 µM) was 0.863 and the relative viability (HOP-62; first compound 0.001 µM) was 0.387. It also gave a relative viability (HOP-62; first compound 0.003162 µM) of 0.364, a relative viability (HOP-62; first compound 0.1 µM) of 0.277 and a relative viability (LCLC-97TM1; first compound 0.001 µM) of 0.164. It also gave a relative viability (LCLC-97TM1; first compound 0.003162 µM) of 0.18, a relative viability (LCLC-97TM1; first compound 0.01 µM) of 0.152 and a relative viability (LCLC-97TM1; first compound 0.03162 µM) of 0.114. The relative viability (LCLC-97TM1; first compound 0.1 µM) was 0.227, the relative viability (LXF-289; first compound 0.001 µM) was 0.686 and the relative viability (LXF-289; first compound 0.003162 µM) was 0.699. The relative viability (LXF-289; first compound 0.01 µM) was 0.701, the relative viability (LXF-289; first compound 0.03162 µM) was 0.577 and the relative viability (LXF-289; first compound 0.1 µM) was 0.466. The relative viability (NCI-H1395; first compound 0.001 µM) was 0.988, the relative viability (NCI-H1395; first compound 0.01 µM) was 1.19 and the relative viability (NCI-H1395; first compound 0.03162 µM) was 0.96. For the same molecule, the relative viability (NCI-H1395; first compound 0.1 µM) was 0.9, the relative viability (NCI-H1437; first compound 0.001 µM) was 0.445 and the relative viability (NCI-H1437; first compound 0.003162 µM) was 0.541. It also gave a relative viability (NCI-H1437; first compound 0.01 µM) of 0.631, a relative viability (NCI-H1437; first compound 0.03162 µM) of 0.382 and a relative viability (NCI-H1437; first compound 0.1 µM) of 0.429. For the same molecule, the relative viability (NCI-H1650; first compound 0.001 µM) was 0.608, the relative viability (NCI-H1650; first compound 0.003162 µM) was 0.735 and the relative viability (NCI-H1650; first compound 0.01 µM) was 0.531. For the same molecule, the relative viability (NCI-H1650; first compound 0.03162 µM) was 0.471, the relative viability (NCI-H1650; first compound 0.1 µM) was 0.327 and the relative viability (NCI-H1666; first compound 0.001 µM) was 0.843. For the same molecule, the relative viability (NCI-H1666; first compound 0.003162 µM) was 0.689, the relative viability (NCI-H1666; first compound 0.01 µM) was 0.638 and the relative viability (NCI-H1666; first compound 0.03162 µM) was 0.766. It also gave a relative viability (NCI-H1666; first compound 0.1 µM) of 0.746, a relative viability (NCI-H1793; first compound 0.001 µM) of 0.403 and a relative viability (NCI-H1793; first compound 0.003162 µM) of 0.396. For the same molecule, the relative viability (NCI-H1793; first compound 0.01 µM) was 0.328, the relative viability (NCI-H1793; first compound 0.03162 µM) was 0.239 and the relative viability (NCI-H1793; first compound 0.1 µM) was 0.251. For the same molecule, the relative viability (NCI-H1944; first compound 0.001 µM) was 0.378, the relative viability (NCI-H1944; first compound 0.003162 µM) was 0.415 and the relative viability (NCI-H1944; first compound 0.01 µM) was 0.39. It also gave a relative viability (NCI-H1944; first compound 0.03162 µM) of 0.383, a relative viability (NCI-H1944; first compound 0.1 µM) of 0.322 and a relative viability (NCI-H2085; first compound 0.001 µM) of 0.483. For the same molecule, the relative viability (NCI-H2085; first compound 0.003162 µM) was 0.584, the relative viability (NCI-H2085; first compound 0.01 µM) was 0.469 and the relative viability (NCI-H2085; first compound 0.03162 µM) was 0.456. The relative viability (NCI-H2085; first compound 0.1 µM) was 0.54, the relative viability (NCI-H2087; first compound 0.001 µM) was 0.189 and the relative viability (NCI-H2087; first compound 0.003162 µM) was 0.322. It also gave a relative viability (NCI-H2087; first compound 0.01 µM) of 0.153, a relative viability (NCI-H2087; first compound 0.03162 µM) of 0.143 and a relative viability (NCI-H2087; first compound 0.1 µM) of 0.126. It also gave a relative viability (NCI-H2126; first compound 0.001 µM) of 0.521, a relative viability (NCI-H2126; first compound 0.003162 µM) of 0.647 and a relative viability (NCI-H2126; first compound 0.01 µM) of 0.647. For the same molecule, the relative viability (NCI-H2126; first compound 0.03162 µM) was 0.551, the relative viability (NCI-H2126; first compound 0.1 µM) was 0.554 and the relative viability (NCI-H3122; first compound 0.001 µM) was 0.249. For the same molecule, the relative viability (NCI-H3122; first compound 0.003162 µM) was 0.303, the relative viability (NCI-H3122; first compound 0.03162 µM) was 0.157 and the relative viability (NCI-H3122; first compound 0.1 µM) was 0.158. The relative viability (NCI-H441; first compound 0.001 µM) was 0.437, the relative viability (NCI-H441; first compound 0.003162 µM) was 0.569 and the relative viability (NCI-H441; first compound 0.01 µM) was 0.468. For the same molecule, the relative viability (NCI-H441; first compound 0.03162 µM) was 0.299, the relative viability (NCI-H441; first compound 0.1 µM) was 0.37 and the relative viability (NCI-H596; first compound 0.001 µM) was 0.67. It also gave a relative viability (NCI-H596; first compound 0.003162 µM) of 0.883, a relative viability (NCI-H596; first compound 0.01 µM) of 0.905 and a relative viability (NCI-H596; first compound 0.03162 µM) of 0.668. For the same molecule, the relative viability (NCI-H596; first compound 0.1 µM) was 0.712, the relative viability (NCI-H661; first compound 0.001 µM) was 0.49 and the relative viability (NCI-H661; first compound 0.003162 µM) was 0.593. The relative viability (NCI-H661; first compound 0.01 µM) was 0.606, the relative viability (NCI-H661; first compound 0.03162 µM) was 0.407 and the relative viability (NCI-H661; first compound 0.1 µM) was 0.367. For the same molecule, the relative viability (PC-14; first compound 0.001 µM) was 0.671, the relative viability (PC-14; first compound 0.003162 µM) was 1.14 and the relative viability (PC-14; first compound 0.01 µM) was 0.708. It also gave a relative viability (PC-14; first compound 0.03162 µM) of 0.448 and a relative viability (PC-14; first compound 0.1 µM) of 0.526.
